Experimental data as given in patent US20060073994A1, “Liquid detergent composition” (Conopco, Inc., d/b/a UNILEVER, priority 2004, published 2006).

tested on: Protease enzyme; test: Residual activity of protease enzyme in liquid detergent formulation with added perfume component after storage; format: biochemical; details: 0.06% by weight perfume component added to 'base' liquid formulation; 2 weeks storage at 37° C.; activity determined at 40° C. in TRIS pH 9 buffer, tetrapeptide substrate; relative to t=0
Description: The following ‘base’ liquid detergent formulation was prepared: […]
The residual activity of the protease enzyme in all thus-formed formulations after 2 weeks storage at 37° C., was determined at 40° C. in a TRIS pH 9 buffer and using tetrapeptide as substrate. For this determination, the following protocol was used: Samples of 70 mg of the tested liquid formulation were diluted in 10.00 ml MilliQ water. 10 μl of this solution was added to an assay of 205 μl containing 74.4 mM TRIS pH9 and 0.494 mM tetrapeptide (succinyl-Ala-Ala-Pro-Phe-p-Nitroanilide). The absorbance of the tested samples at a wavelength of […] was measured for 15 minutes at 40° C., using a spectrophotometer. The absolute changes in absorbance as compared to the absorbance measured on a freshly prepared calibration sample were correlated to the measured activity of such freshly prepared sample. The measured protease enzyme activity is expressed as GU/ml.
The residual enzyme activity (expressed as %) is the enzyme activity after storage of the liquid formulation concerned divided by the enzyme activity measured at t=0.

| Molecule | Residual activity after 2 weeks [%] |
| --- | --- |
| C/C=C\C(=O)C1C(C)=CCCC1(C)C (stereo not drawn) [Alpha damascone] | 68 |
| O=Cc1ccccc1 [Benzaldehyde] | 67 |
| CC(=O)OCc1ccccc1 [Benzyl acetate] | 69 |
| O=C/C=C/c1ccccc1 [Cinnamic aldehyde] | 58 |
| CC(C)=CCCC(C)=CC=O [Citral] | 36 |
| CC(C)=CCCC(C)CC=O (stereo not drawn) [Citronellal] | 62 |
| CC1=CC(C)C(C=O)CC1 (stereo not drawn) [Cyclal C] | 45 |
| CC1=CCC(C(C)C)=CC1 [Gamma terpinolene] | 54 |
| CCCCCCC(C=O)=Cc1ccccc1 [Hexylcinnamic aldehyde] | 81 |
| CC(=O)C1(C)CC2=C(CCCC2(C)C)CC1C (stereo not drawn) [Iso e super] | 75 |
| CC(C=O)Cc1ccc(C(C)(C)C)cc1 (stereo not drawn) [Lilial] | 48 |
| C=C(C)[C@H]1CC=C(C)CC1 [Limonene] | 60 |
| COC(=O)c1ccccc1N [Methyl anthranilate] | 70 |
| CCCCCCCC=O [Octanal] | 44 |
| N#CC(=C1CCCCC1)c1ccccc1 [Peonile] | 73 |
| CC(C)=CCCC1=CCC(C)(C=O)CC1 (stereo not drawn) [Precyclemone] | 74 |
| CC(C)=C1CC[C@@H](C)CC1=O [Pulegone] | 58 |
| CC(C)=CC1CC(C)CCO1 (stereo not drawn) [Rose oxide] | 60 |
| CC1=CCC(=C(C)C)CC1 [Terpinolene] | 47 |
| CCC(C)(O)CCCC(C)C (stereo not drawn) [Tetra hydrolinalool] | 65 |
| CCCCCCCCCC/C=C/C=O [Tridecylenic aldehyde] | 45 |
| CC(CC=O)c1ccccc1 (stereo not drawn) [Trifernal] | 74 |
| COc1cc(C=O)ccc1O [Vanillin] | 43 |
| Vertofix coeur | 68 |
